Measured values published in PMC2830944, “Purification and functional characterization of protoplasts and intact vacuoles from grape cells” (BMC Research Notes, 2010).

How the values were obtained:
[1] = test system: T1, V-ATPase (vacuolar ATPase, V-H+-ATPase); assay: ACMA fluorescence quenching, initial velocity of proton pumping in intact vacuoles; type: biochemical, Vitis vinifera; details: 100 mM KCl, 2 mM MgCl2, 0.1% BSA, 10 mM MOPS-Tris pH 7.2, 2 μM ACMA; 0.05 to 1.5 mM ATP
T1 construct: gene VHA-A; native multisubunit complex in intact vacuoles isolated from protoplasts of cultured grape berry cells

[2] = test system: V-PPase (vacuolar inorganic pyrophosphatase, V-H+-PPase); details: 100 mM KCl, 2 mM MgCl2, 0.1% BSA, 10 mM MOPS-Tris pH 7.2, 2 μM ACMA; 0.1 to 150 μM PPi

Row | Km [1] [µM] | Km [2] [µM] | SMILES
1 | 340 |  | Nc1ncnc2c1ncn2[C@@H]1O[C@H](COP(=O)(O)OP(=O)(O)OP(=O)(O)O)[C@@H](O)[C@H]1O [ATP]
2 |  | 2 | O=P(O)(O)OP(=O)(O)O [PPi]
